As a reminder, the % Inhibition is how much of the control response was suppressed. A high value points to strong suppression.

Strand notation (5' to 3'): a small letter for the sugar, then the base; units joined by * are phosphorothioate-linked, units joined directly phosphodiester-linked; [ ] holds rarer units or linkages, { } end groups; capitals alone tell only the bases. e = 2'-O-(2-methoxyethyl) (MOE); [5mC] = 5-methylcytosine; d = 2'-deoxy (DNA)

One series has as its system human Factor 7 mRNA. Briefly: Antisense inhibition of human Factor 7 mRNA in HepB3 cells, 50 nM antisense oligonucleotide, lipofectin. It counts as cell-based. The settings on record: Table 1, 50 nM, lipofectin, approximately 24 hours, relative to untreated control cells. The procedure:
Antisense oligonucleotides targeted to a Factor 7 nucleic acid were tested for their effects on Factor 7 mRNA in vitro. Cultured HepB3 cells at a density of 4,000 cells per well were transfected using lipofectin reagent with 50 nM antisense oligonucleotide. After a treatment period of approximately 24 hours, RNA was isolated from the cells and Factor 7 mRNA levels were measured by real-time RT-PCR, as described herein. Factor 7 mRNA levels were adjusted according to total RNA content as measured by RIBOGREEN®. Results are presented as percent inhibition of Factor 7, relative to untreated control cells.
(§1) Antisense oligonucleotides targeted to a Factor 7 nucleic acid were designed and tested for their effects on Factor 7 mRNA in vitro. Certain antisense oligonucleotides from Table 3 were also retested for their effects on Factor 7 mRNA in vitro. Cultured HepB3 cells at a density of 4,000 cells per well were transfected using lipofectin reagent with 50 nM antisense oligonucleotide. After a treatment period of approximately 24 hours, RNA was isolated from the cells and Factor 7 mRNA levels were measured by real-time RT-PCR, as described herein. Human Factor 7 primer probe set RTS 2927 was used to measure mRNA levels. Factor 7 mRNA levels were adjusted according to total RNA content as measured by RIBOGREEN®. Results are presented as percent inhibition of Factor 7, relative to untreated control.
as §1, with “tested” for “tested for their effects on Factor 7 mRNA in vitro. Certain antisense oligonucleotides from Table 3 were also retested”
These gapmers were designed by creating gapmers shifted slightly upstream and downstream (i.e. “microwalk”) of the original gapmers from Table 7. Gapmers were also created with various motifs, e.g. 5-10-5 MOE, 3-14-3 MOE, and 2-13-5 MOE. These gapmers were tested in vitro. Cultured HepB3 cells at a density of 4,000 cells per well were transfected using lipofectin reagent with 50 nM antisense oligonucleotide. After a treatment period of approximately 24 hours, RNA was isolated from the cells and Factor 7 mRNA levels were measured by real-time RT-PCR. Factor 7 mRNA levels were adjusted according to total RNA content, as measured by RIBOGREEN®. Results are presented as percent inhibition of Factor 7, relative to untreated control cells.
Turning to “407927 (antisense eA*eG*eG*eT*eA*dA*dG*dG*dA*dG*dG*d[5mC]*dT*d[5mC]*dA*eG*e[5mC]*eT*eG*eG) [compound 407927]”, the “% Inhibition” value was determined as 55%.
The same measure, in the same setting: the figure for “407598 (antisense e[5mC]*e[5mC]*eA*eT*eG*dA*dT*dG*dA*dA*dA*dT*d[5mC]*dT*d[5mC]*eT*eG*e[5mC]*eA*eG) [compound 407598]” is 72%; for “407928 (antisense e[5mC]*eT*eT*eG*eG*d[5mC]*dT*dG*dA*dA*dG*dG*dG*dA*dG*eG*eT*eA*eA*eG) [compound 407928]” it is 55%; for “407664 (antisense e[5mC]*eA*eG*eG*eG*d[5mC]*dG*dA*dG*dG*d[5mC]*dA*dA*d[5mC]*d[5mC]*e[5mC]*e[5mC]*eG*eT*eG) [compound 407664]” it is 70%.
Still for that read-out and setting: the figure for “407629 (antisense eT*e[5mC]*eA*eG*eT*dG*dA*dG*dG*dA*d[5mC]*d[5mC]*dA*d[5mC]*dG*eG*eG*e[5mC]*eT*eG) [compound 407629]” is 34%.
With “407618 (antisense eG*eT*eA*eT*eT*dT*dT*dT*d[5mC]*d[5mC]*dA*d[5mC]*dA*dT*dG*eG*eA*eT*eA*eT) [compound 407618]”, the “% Inhibition” value was determined as 42%.
On the same count and under the same terms, the figure for “407609 (antisense eA*eG*eA*eA*eG*d[5mC]*dA*dG*dA*dT*dA*dT*dA*dG*dG*eA*e[5mC]*eT*eG*eG) [compound 407609]” is 35%; for “407908 (antisense e[5mC]*e[5mC]*e[5mC]*e[5mC]*eA*dG*d[5mC]*d[5mC]*dG*d[5mC]*dT*dG*dA*d[5mC]*d[5mC]*eA*eA*eT*eG*eA) [compound 407908]” it is 47%.
On the same count and under the same terms, the figure for “407621 (antisense eA*e[5mC]*eA*eA*e[5mC]*dA*dG*dG*dA*d[5mC]*d[5mC]*dT*dG*d[5mC]*d[5mC]*eA*eT*eG*eG*eA) [compound 407621]” is 62%; for “407886 (antisense eG*e[5mC]*eA*eG*eA*dG*dG*dA*dG*d[5mC]*d[5mC]*dT*dG*dA*dG*eG*eG*e[5mC]*e[5mC]*eT) [compound 407886]” it is 72%; for “407961 (antisense eA*eA*eG*eT*eA*dG*dA*dT*dG*dA*dT*dG*d[5mC]*d[5mC]*dT*eG*eA*eG*eT*eG) [compound 407961]” it is 34%.
On the same count and under the same terms, to “407945 (antisense eA*eA*eT*e[5mC]*eA*dT*dG*dG*dG*d[5mC]*dA*dA*d[5mC]*d[5mC]*d[5mC]*eA*eG*eT*eG*eG) [compound 407945]” belongs 56%; to “407619 (antisense eA*eG*eA*eA*eT*dA*dG*dG*dT*dA*dT*dT*dT*dT*dT*e[5mC]*e[5mC]*eA*e[5mC]*eA) [compound 407619]”, 64%.
Consider “407650 (antisense e[5mC]*e[5mC]*eA*eT*eG*dT*dG*dA*dG*dG*dG*dT*dT*d[5mC]*dA*eT*eT*eT*e[5mC]*eA) [compound 407650]”, for which the “% Inhibition” value amounted to 39%.
Still for that read-out and setting: the figure for “407944 (antisense e[5mC]*e[5mC]*eA*eG*eT*dG*dG*dG*dT*dG*dG*d[5mC]*dA*dG*dG*e[5mC]*eA*e[5mC]*e[5mC]*eA) [compound 407944]” is 59%.
For the substance “403093 (antisense eG*eA*eG*eA*e[5mC]*d[5mC]*d[5mC]*dT*dG*dG*dT*dG*dT*dA*d[5mC]*eA*e[5mC]*e[5mC]*e[5mC]*e[5mC]) [compound 403093]”, the “% Inhibition” value is given as 75%.

The same series, now with this note: Table 6, 50 nM, lipofectin, approximately 24 hours.
“422122 (antisense eA*eG*e[5mC]*eG*e[5mC]*dG*dG*dA*dA*dG*dA*dA*dG*dG*dG*eA*e[5mC]*eG*eG*eA) [compound 422122]”: the “% Inhibition” value is listed as 24%.
Still for that read-out and setting: to “422193 (antisense eT*eG*eA*dG*d[5mC]*dG*d[5mC]*dG*dG*dA*dA*dG*dA*dA*dG*dG*dG*eA*e[5mC]*eG) [compound 422193]” belongs 6%.

The series is the same for the next values; noted with them: Table 13 (microwalk), 50 nM, lipofectin, approximately 24 hours.
As to “422151 (antisense eT*eG*e[5mC]*dA*dT*dG*dG*dT*dG*dA*dT*dG*d[5mC]*dT*dT*d[5mC]*dT*eG*eA*eA) [compound 422151]”, the “% Inhibition” value is given as 68%.

Still in this series, the particulars now being: gapmers targeted to nucleobases 4868 to 4899 of SEQ ID NO: 1, Table 8.
On to “422222 (antisense eA*eG*e[5mC]*d[5mC]*d[5mC]*dG*dA*dG*dT*dT*d[5mC]*dT*dG*d[5mC]*dA*dG*dG*eA*eG*e[5mC]) [compound 422222]”, for which the “% Inhibition of human Factor 7 mRNA levels” value was 55%.

Staying with this series, now noted: lipofectin, 50 nM antisense oligonucleotide, approximately 24 hours, Factor 7 mRNA by real-time RT-PCR (RTS 2927), relative to untreated control.
On to “416488 (antisense e[5mC]*eA*eG*eG*eT*d[5mC]*d[5mC]*dT*d[5mC]*d[5mC]*d[5mC]*dA*d[5mC]*dT*dG*e[5mC]*eA*eG*e[5mC]*e[5mC]) [compound 416488]”, for which the “% Inhibition” value worked out at 41%.
As for “416454 (antisense e[5mC]*eG*eT*eG*e[5mC]*dT*d[5mC]*dG*d[5mC]*d[5mC]*d[5mC]*dA*dG*d[5mC]*dA*e[5mC]*e[5mC]*eG*e[5mC]*eG) [compound 416454]”, the “% Inhibition” value was 56%.
Still for that read-out and setting: to “416556 (antisense eA*eT*eA*eG*e[5mC]*dT*dT*dT*dG*dA*dT*d[5mC]*d[5mC]*dA*dA*eT*eG*e[5mC]*eT*e[5mC]) [compound 416556]” belongs 53%; to “416463 (antisense eT*eG*e[5mC]*eT*eG*d[5mC]*dA*dG*dG*d[5mC]*dA*dG*dT*d[5mC]*d[5mC]*eT*eG*eG*eG*eT) [compound 416463]”, 39%.
On the same count and under the same terms, the figure for “416518 (antisense eG*eG*eG*eT*eG*dA*d[5mC]*d[5mC]*dA*d[5mC]*dA*d[5mC]*dA*dT*dT*eT*e[5mC]*e[5mC]*eT*eG) [compound 416518]” is 55%; for “416539 (antisense eG*eA*e[5mC]*eA*eG*dA*dG*d[5mC]*d[5mC]*dT*dG*dA*dG*d[5mC]*dT*eT*eG*eG*e[5mC]*eA) [compound 416539]” it is 53%.
Still for that read-out and setting: the figure for “416495 (antisense eT*e[5mC]*eT*eA*eG*dA*dA*dT*dT*d[5mC]*d[5mC]*dA*dA*dA*d[5mC]*e[5mC]*e[5mC]*e[5mC]*eT*eA) [compound 416495]” is 0%.

Still in this series, the particulars now being: oligonucleotides targeted to nucleobases 11830 to 11869 of SEQ ID NO: 1 (Table 9).
Turning to “422105 (antisense eT*eG*eG*e[5mC]*eT*dG*dA*dG*dG*dA*dG*dA*d[5mC]*dA*dA*eT*eG*eG*eT*e[5mC]) [compound 422105]”, the “% Inhibition (human Factor 7 mRNA levels)” value worked out at 60%.
Turning to “422107 (antisense eG*e[5mC]*eT*eG*eG*d[5mC]*dT*dG*dA*dG*dG*dA*dG*dA*d[5mC]*eA*eA*eT*eG*eG) [compound 422107]”, the “% Inhibition (human Factor 7 mRNA levels)” value was found to be 36%.
On to “422238 (antisense eA*e[5mC]*dA*dA*dT*dG*dG*dT*d[5mC]*dA*dG*dG*dG*d[5mC]*dT*eG*eG*eT*eT*eT) [compound 422238]”, for which the “% Inhibition (human Factor 7 mRNA levels)” value is reported as 64%.
Same read-out and setting: the figure for “422171 (antisense eG*eG*e[5mC]*dT*dG*dA*dG*dG*dA*dG*dA*d[5mC]*dA*dA*dT*dG*dG*eT*e[5mC]*eA) [compound 422171]” is 61%; for “422102 (antisense e[5mC]*eT*eG*eA*eG*dG*dA*dG*dA*d[5mC]*dA*dA*dT*dG*dG*eT*e[5mC]*eA*eG*eG) [compound 422102]” it is 62%; for “422174 (antisense eG*e[5mC]*eT*dG*dG*d[5mC]*dT*dG*dA*dG*dG*dA*dG*dA*d[5mC]*dA*dA*eT*eG*eG) [compound 422174]” it is 55%.
With “422154 (antisense eT*e[5mC]*eA*dG*dG*dG*d[5mC]*dT*dG*dG*dT*dT*dT*dT*dG*dG*dA*eG*eG*eA) [compound 422154]”, the “% Inhibition (human Factor 7 mRNA levels)” value is 31%.

The series is the same for the next values; noted with them: oligonucleotides targeted to nucleobases 13760 to 13789 of SEQ ID NO: 1 (Table 10).
“422176 (antisense e[5mC]*e[5mC]*eG*d[5mC]*d[5mC]*dG*dG*d[5mC]*dT*d[5mC]*dT*dG*d[5mC]*dT*d[5mC]*dA*dT*e[5mC]*e[5mC]*e[5mC]) [compound 422176]”: the “% Inhibition (human Factor 7 mRNA levels)” value came out at 52%.

Staying with this series, now noted: oligonucleotides targeted to nucleobases 14707 to 14732 of SEQ ID NO: 1 (Table 11).
As to “422133 (antisense eA*eG*e[5mC]*eA*eG*d[5mC]*d[5mC]*dT*dG*dA*dG*dG*d[5mC]*d[5mC]*dA*eG*e[5mC]*eA*eG*eA) [compound 422133]”, the “% Inhibition (human Factor 7 mRNA levels)” value is on record as 65%.
